In this assay the target is T1, L-CPT1 (human liver CPT1) (Homo sapiens, UniProt P50416).
T1 construct: made in house; host or cells: Pichia pastoris strain X-33 (pGAPZB/pGAPZA plasmids); crude cell-free extracts
T1 sequence (P50416 1-773): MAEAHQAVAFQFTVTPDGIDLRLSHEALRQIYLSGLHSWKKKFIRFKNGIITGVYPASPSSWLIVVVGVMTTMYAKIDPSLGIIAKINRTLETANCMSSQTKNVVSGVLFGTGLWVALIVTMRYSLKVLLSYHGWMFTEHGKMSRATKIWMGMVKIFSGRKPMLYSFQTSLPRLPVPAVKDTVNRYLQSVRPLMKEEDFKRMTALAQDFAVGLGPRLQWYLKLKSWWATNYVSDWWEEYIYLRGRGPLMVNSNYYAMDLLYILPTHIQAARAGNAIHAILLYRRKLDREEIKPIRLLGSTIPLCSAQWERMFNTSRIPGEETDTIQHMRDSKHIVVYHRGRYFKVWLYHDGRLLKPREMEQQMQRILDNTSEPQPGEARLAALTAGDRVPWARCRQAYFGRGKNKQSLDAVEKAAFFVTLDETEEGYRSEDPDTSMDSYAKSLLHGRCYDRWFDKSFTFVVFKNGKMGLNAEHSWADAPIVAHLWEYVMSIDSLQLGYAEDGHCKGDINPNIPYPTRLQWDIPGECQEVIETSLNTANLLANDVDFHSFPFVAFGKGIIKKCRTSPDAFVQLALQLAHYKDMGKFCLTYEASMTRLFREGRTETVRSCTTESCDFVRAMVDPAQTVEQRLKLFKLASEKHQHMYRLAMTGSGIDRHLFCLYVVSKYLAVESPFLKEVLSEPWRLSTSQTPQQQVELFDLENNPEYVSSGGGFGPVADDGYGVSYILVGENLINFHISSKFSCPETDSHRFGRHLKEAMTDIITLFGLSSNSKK
Nature of the assay: L-CPT1 inhibition, spectrophotometric CPT activity assay with DTNB (Ellman's reagent). In kind it is biochemical. The note with it: human liver CPT1 expressed in P. pastoris, cell extracts; carnitine 500 μM, palmitoyl-CoA 80 μM, DTNB 300 μM, pH 7.4.

Procedure: Human liver and muscle CPT1 cDNAs and rat CPT2 cDNA were subcloned in pGAPZB or pGAPZA, respectively. These plasmids were used to transform P. pastoris strain X-33 via electroporation after the preparation of electrocompetent cells. High copy number clones were selected where necessary using 0.5 or 1 mg/ml Zeocin. Cultures for activity measurements were induced for 16 h in YPD medium (1% yeast extract, 2% peptone, 2% glucose). Crude cell extracts were prepared by disrupting the cells with glass beads or French Press, depending on fermenter sizes. After centrifugation, the cell-free extracts were resuspended in cell breaking buffer (50 mM Tris, pH 7.4, 100 mM KCl, 1 mM EDTA) in the presence of a protease inhibitor cocktail, before aliquoting and freezing at −20° C.
CPT activity was measured using a spectrophotometric assay using 5,5′-dithio-bis-(2-nitrobenzoic acid) (DTNB) also called Ellman's reagent. […] The assay buffer contained 120 mM KCl, 25 mM Tris, pH 7.4, 1 mM EDTA.

On to `O=C(O)Cc1ccc(NC(=O)c2ccc3c(c2)N(S(=O)(=O)c2cccc(Cl)c2)CC3)cc1` [Example 7, (4-{[1-(3-Chloro-benzenesulfonyl)-2,3-dihydro-1H-indole-6-carbonyl]-amino}-phenyl)-acetic acid], for which the IC50 (in general, the midpoint of a concentration-inhibition curve) came out at 125 nM.
For `COc1ccc(Cl)cc1S(=O)(=O)N1CCc2c(C)cc(C(=O)Nc3ccc(CC(=O)O)cc3)cc21` [Example 14, (4-{[1-(5-Chloro-2-methoxy-benzenesulfonyl)-4-methyl-2,3-dihydro-1H-indole-6-carbonyl]-amino}-phenyl)-acetic acid] the value was 210 nM.

For the origin of these results see patent US7799933B2, “Sulfonamide derivatives” (Hoffman-La Roche Inc., priority 2006, dated 2010).
